According to ChEMBL document CHEMBL1201862, “PubChem BioAssay data set” (2004):
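Cells were grown in 96-well plates and exposed to each compound for 48 hours at five concentrations; endpoints were interpolated linearly between bracketing concentrations, or set to the highest concentration if not reached. GI50 marks 50% less growth.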 The source made the active and inactive calls. Rule as the data show it: active = GI50 up to about 1.1 µM and inactive = higher.

Assays:
Test in all cases: NCI-60 cell line screen, 48 h
A549 = system: A549
CCRF-CEM = system: CCRF-CEM
DMS-114 = system: DMS-114
DMS-273 = system: DMS-273
HOP-18 = system: HOP-18
HT-29 = system: HT-29
K562 = system: K562
KM-20L2 = system: KM-20L2
KM12 = system: KM12
M14 = system: M14
RXF 393 = system: RXF 393
SN12C = system: SN12C
SNB-75 = system: SNB-75
SNB-78 = system: SNB-78
U-251 = system: U-251

Measured: GI50

N/N=c1\c2ccccc2c2ccc3c4ccccc4/c(=N\N)c3c12
inactive: A549 > 100 µM | CCRF-CEM > 100 µM | DMS-114 > 100 µM | DMS-273 > 100 µM | HOP-18 > 100 µM | HT-29 > 100 µM | K562 > 100 µM | KM-20L2 > 100 µM | KM12 > 100 µM | M14 > 100 µM | RXF 393 > 100 µM | SN12C > 100 µM | SNB-75 37.3 µM | SNB-78 > 100 µM | U-251 > 100 µM

COc1cc2c3cc1Oc1c(O)c(OC)cc4c1C(Cc1ccc(O)c(c1)Oc1ccc(cc1)CC3N(C)CC2)N(C)CC4 (stereo not given)
inactive: A549 17.6 µM | CCRF-CEM 8.57 µM | DMS-114 20 µM | DMS-273 13 µM | HOP-18 27.9 µM | HT-29 7.13 µM | K562 3.03 µM | KM-20L2 5.56 µM | KM12 11.1 µM | M14 3.11 µM | RXF 393 2.44 µM | SN12C 15.3 µM | SNB-75 15 µM | SNB-78 24.9 µM | U-251 14.2 µM

O/N=C/c1ncccc1C1OCCO1
inactive: A549 > 100 µM | CCRF-CEM > 100 µM | DMS-114 > 100 µM | DMS-273 > 100 µM | HOP-18 > 100 µM | HT-29 > 100 µM | K562 > 100 µM | KM-20L2 > 100 µM | KM12 > 100 µM | M14 > 100 µM | RXF 393 > 100 µM | SN12C > 100 µM | SNB-75 > 100 µM | SNB-78 > 100 µM | U-251 > 100 µM

CCc1cccc(CC)c1NC1=CC(=O)C(=O)c2ccccc21
inactive: A549 18.6 µM | CCRF-CEM > 100 µM | DMS-114 12.4 µM | DMS-273 19.2 µM | HOP-18 21.2 µM | HT-29 2.06 µM | K562 59.4 µM | KM-20L2 19.8 µM | KM12 15.4 µM | M14 13.5 µM | RXF 393 23.9 µM | SN12C 27.5 µM | SNB-75 22.8 µM | SNB-78 26.3 µM | U-251 15.3 µM

CN(C)c1ccc(C=C2C(=O)OC(C)(C)OC2=O)cc1Br
inactive: A549 > 100 µM | CCRF-CEM > 100 µM | DMS-114 > 100 µM | DMS-273 > 100 µM | HOP-18 > 100 µM | HT-29 > 100 µM | K562 82.6 µM | KM-20L2 > 100 µM | KM12 > 100 µM | M14 > 100 µM | RXF 393 > 100 µM | SN12C > 100 µM | SNB-75 29.5 µM | SNB-78 > 10 µM | U-251 > 100 µM

CC(C)(C)c1cc(Cc2ccc(S(C)(=O)=O)cc2)c(O)c(C(C)(C)C)c1
inactive: A549 11.7 µM | CCRF-CEM 12.3 µM | DMS-114 13.5 µM | DMS-273 14.3 µM | HOP-18 22.7 µM | HT-29 14.7 µM | K562 13.8 µM | KM-20L2 15.7 µM | KM12 16.4 µM | M14 15.4 µM | RXF 393 12.9 µM | SN12C 15.3 µM | SNB-75 14.8 µM | SNB-78 16.3 µM | U-251 15.1 µM

C/C(=N\NC(=S)Nc1ccc(C(=O)O)cc1)c1ccccn1
inactive: A549 39.1 µM | CCRF-CEM 17.4 µM | DMS-114 23.1 µM | DMS-273 24 µM | HOP-18 24.7 µM | HT-29 34.7 µM | K562 40.1 µM | KM-20L2 25.8 µM | KM12 25.5 µM | M14 15.1 µM | RXF 393 35 µM | SN12C 19.7 µM | SNB-75 20.5 µM | SNB-78 > 100 µM | U-251 24.2 µM
